Experimental data from patent publication US20100261876A1, “NOVEL METHODS OF […] FOR T[…] PEPTIDES” (priority 2007, published 2010).
Where a SMILES comes first, the peptide text is derived from it.

Legend:
HIV-Res = test: Magi-CCR5 infectivity assay, resistant viral isolate; type: cell-based, HIV-1; conditions: compared to SEQ ID NO:6 / 7
From the text: Assessment of biological properties included measurement of antiviral activity against HIV-1 strains. In determining antiviral activity (e.g., one measure being the ability to inhibit transmission of HIV to a target cell) of the HIV fusion inhibitor peptides, an in vitro assay which has been shown, by data generated using peptides derived from the HR regions of HIV gp41, to be predictive of antiviral activity observed in vivo was used. […] These assays score for reduction of infectious virus titer employing the indicator cell lines MAGI or the CCR5 expressing derivative cMAGI. Both cell lines exploit the ability of HIV-1 tat to transactivate the expression of a β-galactosidase reporter gene driven by the HIV-LTR. The β-gal reporter has been modified to localize in the nucleus and can be detected with the X-gal substrate as intense nuclear staining within a few days of infection. […] The number of infected cells for each control and peptide dilution was determined with the CCD-imager, and then the IC50 was calculated (expressed in μg/ml).
Viruses resistant to the antiviral activity of a peptide consisting of a base sequence can be produced using standard laboratory methods. […] The cultures are maintained and monitored until syncytia are present. […] The second round of culture is maintained and monitored for presence of virus resistant to the antiviral activity of the peptide. […]

[1] = Intravenous pharmacokinetics in cynomolgus monkeys; type: in vivo, cynomolgus monkeys (Macaca fasicularis); conditions: relative to base sequence SEQ ID NO:5
Procedure: For determining pharmacokinetic properties, an HIV fusion inhibitor peptide or a base sequence from which an HIV fusion inhibitor peptide is derived was dosed intravenously in cynomolgus monkeys (Macaca fasicularis) (other animal models may be used for determining pharmacokinetic properties, as known in the art). At various times post-dose, blood samples were drawn and plasma isolated by centrifugation. Plasma samples were stored frozen until analysis by LC-MS (liquid chromatography/mass spectrometry) in the electrospray, positive-ion mode. An HIV fusion inhibitor or base sequence was eluted from a C18 or C8 HPLC column with a gradient of acetonitrile in a buffer of 10 mM ammonium acetate, pH 6.8. At the time of analysis, plasma samples were deproteinated with either two or three volumes of acetonitrile containing 0.5% formic acid. Duplicate calibration standards in cynomolgus plasma samples were prepared at the same time as the samples and analyzed before and after the samples containing either HIV fusion inhibitor peptide or base sequence. Pharmacokinetic properties were calculated from the plasma concentration-time data using either mono-exponential or bi-exponential mathematical models. Models were derived by non-linear least squares optimization. A 1/C^2 weighting of concentrations was used. […]

[2] = system: virus isolates (IIIB, 030, 060 and 098); test: In vitro resistance selection, geometric mean over isolates; type: cell-based, HIV; conditions: compared to SEQ ID NO:2
Procedure: Biological properties of the HIV fusion inhibitor peptides provided herein have been compared with other recognized, effective antiviral agents, including SEQ ID NO: 2 (enfuvirtide). In particular, in vitro resistance comparison studies were performed between the novel SEQ ID NO:9 compound of interest and established antiviral agent SEQ ID NO:2, described in detail as follows: MT2 cells were infected with virus isolates (IIIB, 030, 060 and 098) and cultured in increasing concentrations of SEQ ID NO:2 (enfuvirtide) or SEQ ID NO:9 to select for resistance. The initial peptide concentration was approximately 2 times the IC50 of each peptide against the corresponding wild type isolate. Peptide concentrations were maintained by adding fresh peptide every 1-3 days. Cultures were monitored for cytopathic effect (CPE) using standard techniques and when maximal CPE was achieved, a small aliquot of virus was used for subsequent rounds of infection. Peptide concentrations were increased 2 to 4-fold depending on the length of time in culture when compared to the growth rate of wild type virus. During the course of selection, peptide-free virus stocks were also collected. Peptide-free virus stocks were characterized for gp41 genotypic changes by dideoxy sequencing chemistries and phenotypic susceptibility was determined using a cMAGI infectivity assay.

[3] = Stability in aqueous solution (PBS), peptide remaining in solution by HPLC; type: physicochemical; conditions: phosphate-buffered saline (PBS), 10 mg/ml in PBS, about pH 7.3 to 7.5, 37° C., read-out: peptide remaining detectable in solution at 1 week

Compound	resistance profile (activity against the resistant viral isolate Res) (HIV-Res)	biological half-life, in words [1]	barrier to development of resistance in vitro [2]	remaining at 168 h, 10 mg/ml [3] [%]
CC[C@H](C)[C@H](NC(=O)[C@H](C)NC(=O)[C@H](CCCNC(=N)N)NC(=O)[C@H](CC(=O)O)NC(=O)[C@H](Cc1c[nH]c2ccccc12)NC(=O)[C@H](C)NC(=O)[C@H](CCC(=O)O)NC(=O)[C@H](Cc1c[nH]c2ccccc12)NC(=O)[C@@H](NC(=O)[C@@H](NC(C)=O)[C@@H](C)O)[C@@H](C)O)C(=O)N[C@@H](C)C(=O)N[C@@H](CCC(=O)O)C(=O)N[C@@H](Cc1ccc(O)cc1)C(=O)N[C@@H](C)C(=O)N[C@@H](C)C(=O)N[C@@H](CCCNC(=N)N)C(=O)N[C@H](C(=O)N[C@@H](CCC(=O)O)C(=O)N[C@@H](C)C(=O)N[C@@H](CC(C)C)C(=O)N[C@@H](CC(C)C)C(=O)N[C@@H](CCCNC(=N)N)C(=O)N[C@@H](C)C(=O)N[C@@H](C)C(=O)N[C@@H](CCC(N)=O)C(=O)N[C@@H](CCC(=O)O)C(=O)N[C@@H](CCC(N)=O)C(=O)N[C@@H](CCC(N)=O)C(=O)N[C@@H](CCC(=O)O)C(=O)N[C@@H](CCCCN)C(=O)N[C@@H](CC(C)C)C(=O)N[C@@H](CCC(=O)O)C(=O)N[C@@H](C)C(=O)N[C@@H](C)C(=O)N[C@@H](CC(C)C)C(=O)N[C@@H](CCCNC(=N)N)C(=O)N[C@@H](CCC(=O)O)C(=O)N[C@@H](CC(C)C)C(N)=O)[C@@H](C)CC [compound 10] (Ac-TTWEAWDRAIAEYAARIEALLRAAQEQQEKLEAALREL-NH2)	good resistance profile	increased biological half-life		
CC[C@H](C)[C@H](NC(=O)[C@H](C)NC(=O)[C@H](CCCNC(=N)N)NC(=O)[C@H](CC(=O)O)NC(=O)[C@H](Cc1c[nH]c2ccccc12)NC(=O)[C@H](C)NC(=O)[C@H](CCC(=O)O)NC(=O)[C@H](Cc1c[nH]c2ccccc12)NC(=O)[C@@H](NC(=O)[C@@H](NC(C)=O)[C@@H](C)O)[C@@H](C)O)C(=O)N[C@@H](C)C(=O)N[C@@H](CCC(=O)O)C(=O)N[C@@H](Cc1ccc(O)cc1)C(=O)N[C@@H](C)C(=O)N[C@@H](C)C(=O)N[C@@H](CCCNC(=N)N)C(=O)N[C@H](C(=O)N[C@@H](CCC(=O)O)C(=O)N[C@@H](C)C(=O)N[C@@H](CC(C)C)C(=O)N[C@@H](CC(C)C)C(=O)N[C@@H](CCCNC(=N)N)C(=O)N[C@@H](C)C(=O)N[C@@H](CC(C)C)C(=O)N[C@@H](CCC(N)=O)C(=O)N[C@@H](CCC(=O)O)C(=O)N[C@@H](CCC(N)=O)C(=O)N[C@@H](CCC(N)=O)C(=O)N[C@@H](CCC(=O)O)C(=O)N[C@@H](CCCCN)C(=O)N[C@@H](CC(N)=O)C(=O)N[C@@H](CCC(=O)O)C(=O)N[C@@H](C)C(=O)N[C@@H](C)C(=O)N[C@@H](CC(C)C)C(=O)N[C@@H](CCCNC(=N)N)C(=O)N[C@@H](CCC(=O)O)C(=O)N[C@@H](CC(C)C)C(N)=O)[C@@H](C)CC [compound 9] (Ac-TTWEAWDRAIAEYAARIEALLRALQEQQEKNEAALREL-NH2)	good resistance profile	increased biological half-life	higher barrier to development of resistance	≥ 90
